Source: patent publication US20250255888A1, “Use of Baby Aspirin with Diphenhydramine or other Sleep Aids” (priority 2024, published 2025)
Structures can show the parent of a compound that is named as a salt.

Assay: Self-reported use as a sleep aid at night: sleep and morning aftereffects (applicant and two friends)
Format: in vivo
Conditions: patent applicant, taken for sleep, morning after; worse with less than seven hours of sleep
Excerpt: They further recommended same to two of their close friends who had complained of same aftereffects of Benadryl.
When aspirin was used with other sleep aids that contain diphenhydramine as an active ingredient, similar result was obtained.

Compound: CN(C)CCOC(c1ccccc1)c1ccccc1 [Benadryl, diphenhydramine HCL]
- aftereffects in the morning (poor sleep quality, lingering drowsiness, difficulty concentrating): would experience some of the aftereffects of Benadryl such as poor sleep quality, lingering drowsiness or difficulty concentrating
